Reference: patent EP3598902A1, “VITAMIN B2 AND ITS USE” (Société des Produits Nestlé S.A., priority 2014, dated 2016)

System: L6 differentiated muscle cells
Assay: glucose uptake (radiolabelled 2-deoxy-D-[1,2 3H] glucose) in differentiated muscle cells, absence of insulin
Assay type: cell-based
Conditions: ingredient G 1 µM, ingredient K 10 nM, versus control or basal condition
Experimental: Ingredient G refers to vitamin B2, ingredient k refers to 1,25-dihydroxyvitamin D3, and ingredient J refers to zinc chloride.
Ingredient G was tested at 1 µM. Ingredient K was tested at 10 nM, and ingredient J was tested at 20 µM.
Each ingredient was tested in triplicate.

Cc1cc2nc3c(=O)[nH]c(=O)nc-3n(C[C@H](O)[C@H](O)[C@H](O)CO)c2cc1C [ingredient G, vitamin B2] was tested, and the glucose uptake (long term incubation (24 hrs)) was “increases in glucose uptake were observed” and the glucose uptake (short term incubation (2 hrs), ingredient J 20 µM) was “increases in glucose uptake were observed”.
